# Experimental data published in patent publication US10100076B2, “Modified nucleosides for the treatment of viral infections and abnormal cellular proliferation” (priority 2000, dated 2018).
# What was measured:
# [1] = tested on: HCV replicon; assay: HCV replicon system in Huh7 cells, replicon RNA by Q-RT-PCR (HCV ΔCt, ΔΔCt); assay type: cell-based, hepatitis C virus; conditions: for Ave. ΔΔCt: HCV RNA ΔCt minus rRNA ΔCt; for Ave. HCV RNA ΔCt: HCV replicon in Huh7 cells; for average ΔΔCt: HCV RNA ΔCt minus rDNA ΔCt
# [2] = tested on: rRNA (host RNA polymerase I product); assay: rRNA ΔCt in Huh7 replicon cells (effect on host RNA polymerases); conditions: Table 24, average of n
# Source text: In a typical setting, a compound might reduce both the host RNA polymerase activity and the replicon-encoded polymerase activity. Therefore, quantification of rRNA (or any other host RNA polymerase I product) or beta-actin mRNA (or any other host RNA polymerase II) and comparison with RNA levels of the no-drug control is a relative measurement of the effect of the test compound on host RNA polymerases.
# With the availability of both the HCV ΔCt data and the rRNA ΔCt, a specificity parameter can be introduced. This parameter is obtained by subtracting both ΔCt values from each other.
# [3] = tested on: rDNA (host DNA); assay: rDNA ΔCt in Huh7 replicon cells (effect on cellular DNA polymerases); conditions: Table 25, average of N
# Source text: In another typical setting, a compound might reduce the host RNA polymerase activity, but not the host DNA polymerase activity. Therefore, quantification of rDNA or beta-actin DNA (or any other host DNA fragment) and comparison with DNA levels of the no-drug control is a relative measurement of the inhibitory effect of the test compound on cellular DNA polymerases.
# With the availability of both the HCV ΔCt data and the rDNA ΔCt, a specificity parameter can be introduced. This parameter is obtained by subtracting both ΔCt values from each other.
# Also: test concentration or dose not given here.
Structure (SMILES),Ave. ΔΔCt ([1]; Table 24),"Ave. HCV RNA ΔCt ([1]; Table 24, average of n)",Ave. rRNA ΔCt [2],average ΔΔCt ([1]; Table 25),"Ave. HCV RNA ΔCt ([1]; Table 25, average of N)",Ave. rDNA ΔCt [3]
"NC(=O)c1ncn([C@@H]2O[C@H](CO)[C@@H](O)[C@H]2O)n1 [RIB, ribavirin, reference compound]",0.78,3.13,2.35,,,
Nc1ccn([C@@H]2O[C@H](CO)[C@@H](O)[C@@H]2O)c(=O)n1 [β-D-AA],1.42,3.83,2.41,1.88,3.83,2.53
Nc1ccn([C@@H]2O[C@H](CO)[C@H](Br)[C@H]2O)c(=O)n1 [β-D-AI],0.48,2.93,2.43,4.55,3.76,−0.96
CS(=O)(=O)OC1C(CO)OC(n2ccc(N)nc2=O)C1O [β-D-AK],1.25,3.73,2.48,0.79,3.51,2.69
Cc1ccc(S(=O)(=O)O[C@@H]2[C@@H](O)[C@H](n3ccc(N)nc3=O)O[C@@H]2CO)cc1 [β-D-AL],0.36,3.08,2.72,0.61,3.18,2.56
Nc1ccn([C@@H]2O[C@H](CO)[C@@H](O)[C@@H]2Cl)c(=O)n1 [β-D-AN],1.22,3.33,2.11,1.88,3.86,2.53
[2H]c1c(N)nc(=O)n([C@@H]2O[C@H](CO)[C@@H](O)[C@@H]2O)c1[2H] [β-D-AO],1.97,4.10,2.13,2.26,4.10,1.84
Nc1nc(=O)n([C@@H]2O[C@H](CO)[C@@H](O)[C@@H]2O)cc1F [β-D-AP],0.05,3.27,3.23,1.02,3.27,2.26
Nc1nc(=O)n([C@@H]2O[C@H](CO)[C@@H](O)[C@H]2O)cc1F [β-D-AQ],1.22,4.45,3.22,2.73,4.75,1.78
Nc1nc(=O)n(C2OC(CO)C(Br)C2O)cc1F [β-D-AT],0.64,3.71,3.07,1.43,3.81,2.43
Nc1nc(=O)n([C@@H]2O[C@H](CO)[C@H](Br)[C@H]2O)cc1I [β-D-BE],1.64,4.44,2.80,2.98,4.99,2.06
Cc1ccc(S(=O)(=O)O[C@@H]2[C@@H](O)[C@H](n3cc(I)c(N)nc3=O)O[C@@H]2CO)cc1 [β-D-BF],1.68,4.37,2.69,3.28,5.27,2.04
Nc1nc(=O)n([C@@H]2O[C@H](CO)[C@@H](O)[C@@H]2Br)cc1I [β-D-BH],2.15,3.06,0.91,1.64,3.06,1.42
Nc1cn([C@@H]2O[C@H](CO)[C@@H](O)[C@H]2O)c(=O)nc1N [β-D-BJ],1.44,5.06,3.62,3.53,4.34,0.81
N=c1nc(N)ccn1[C@@H]1O[C@H](CO)[C@@H](O)[C@@H]1O [β-D-BL],0.35,2.28,1.93,0.65,2.28,1.62
CC(=O)Nc1ccn([C@@H]2O[C@H](CO)[C@@H](O)[C@@H]2O)c(=O)n1 [β-D-BO],1.57,4.52,2.95,,,
O=c1nc(NO)c(F)cn1[C@@H]1O[C@H](CO)[C@@H](O)[C@H]1O [β-D-BT],1.24,4.83,3.59,3.39,4.44,1.17
O=c1nc(NO)c(Br)cn1[C@@H]1O[C@H](CO)[C@@H](O)[C@H]1O [β-D-BU],1.06,3.46,2.18,1.16,3.46,1.10
O=c1nc(NO)c(I)cn1[C@@H]1O[C@H](CO)[C@@H](O)[C@H]1O [β-D-BV],1.22,1.88,0.65,1.65,1.88,0.31
O=c1[nH]c(=O)n([C@@H]2O[C@H](CO)[C@@H](O)[C@H]2O)cc1F [β-D-CC],0.21,5.04,4.82,3.66,5.84,2.17
Nc1ncnc2c1ncn2[C@@H]1O[C@H](CO)[C@@H](F)[C@H]1O [β-D-DD],1.61,6.60,4.99,3.30,6.60,3.30
OC[C@@H]1C[C@H](F)[C@H](n2cnc3c(Cl)ncnc32)O1 [β-D-DH],1.21,4.13,2.91,3.25,4.14,0.89
O=C(Nc1nc(=O)n([C@H]2C=C[C@@H](CO)O2)cc1F)c1ccccc1[N+](=O)[O-] [β-D-EB],1.90,3.33,1.42,2.37,3.33,0.96
OC[C@@H]1C=C(F)[C@H](n2cnc3c(Cl)ncnc32)O1 [β-D-FA],1.44,3.80,3.58,0.78,3.80,1.92
Nc1ccn([C@@H]2C=C(CO)[C@@H](O)[C@H]2O)c(=O)n1 [β-D-HA],1.68,5.52,3.85,3.16,5.12,2.04
Nc1nc(=O)n([C@@H]2C=C(CO)[C@@H](O)[C@H]2O)cc1F [β-D-HB],1.30,2.94,1.65,0.40,1.90,1.19
CC1(CO)CO[C@@H](n2cnc3c(N)nc(F)nc32)C1 (stereo partly drawn) [β-D-VA],1.39,5.56,4.17,,,
